According to patent US20060264460A1 (Wyeth, priority 2005, published 2006):
pIC50: −log10 of the molar value.

These compounds were tested against T1, human Cot/Tpl2 kinase (Homo sapiens, UniProt P41279) (assay: Tpl2/Cot kinase assay: GST-MEK1 phosphorylation detected by ELISA (DELFIA Eu)). Details: Tpl2/Cot kinase, GST-MEK1 substrate, 50 uM ATP.
T1 construct: human Cot/Tpl2 kinase construct encoding residues 30-398; 6His (N); made in house; host or cells: Sf9 insect cells, baculovirus system (BD Biosciences)
T1 sequence (P41279 30-398): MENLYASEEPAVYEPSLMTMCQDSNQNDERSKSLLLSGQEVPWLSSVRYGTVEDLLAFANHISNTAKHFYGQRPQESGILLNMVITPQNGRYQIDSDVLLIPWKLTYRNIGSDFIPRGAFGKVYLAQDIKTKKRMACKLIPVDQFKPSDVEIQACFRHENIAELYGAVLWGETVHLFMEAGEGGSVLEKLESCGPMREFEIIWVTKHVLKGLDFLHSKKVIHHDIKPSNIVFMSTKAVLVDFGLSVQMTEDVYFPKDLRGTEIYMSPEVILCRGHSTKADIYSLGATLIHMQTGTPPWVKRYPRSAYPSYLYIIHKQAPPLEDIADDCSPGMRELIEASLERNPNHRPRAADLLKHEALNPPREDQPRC
Type: biochemical
In short: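 His-tagged human Tpl2 from Sf9 cells, Ni-affinity and size-exclusion purified (monomer). 0.4 nM Tpl2 with 35 nM GST-MEK1, 50 uM ATP, MOPS pH 7.2, 1% DMSO, 1 h at 30° C; EDTA stop. MEK1 Ser217/221 phosphorylation detected by anti-phospho-MEK1 and Eu-labelled secondary ELISA; IC50 fitted.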

SMILES | pIC50
CN1CCC(Cn2cc(CN(C)c3cc(Br)c4ncc(C#N)c(Nc5ccc(F)c(Cl)c5)c4c3)nn2)CC1 [Example 679] | 6.54
CN1CCC(Cn2cc(CNc3cc(Br)c4ncc(C#N)c(Nc5ccc(F)c(Cl)c5)c4c3)nn2)CC1 [Example 680] | 7.92
CN1CCC(n2cc(CN(C)c3cc(Br)c4ncc(C#N)c(Nc5ccc(F)c(Cl)c5)c4c3)nn2)CC1 [Example 681] | 7.66
CSCCn1cc(CNc2cc(Br)c3ncc(C#N)c(Nc4ccc(F)c(Cl)c4)c3c2)nn1 [Example 682] | 7.09
COCCCc1nc[nH]c1CNc1cc(Br)c2ncc(C#N)c(Nc3ccc(F)c(Cl)c3)c2c1 [Example 683] | 7.21
CNCCn1cc(CNc2cc(Br)c3ncc(C#N)c(Nc4ccc(F)c(Cl)c4)c3c2)nn1 [Example 684] | 7.42
CNCCn1cc(CNc2cc(Cl)c3ncc(C#N)c(Nc4ccc(F)c(Cl)c4)c3c2)nn1 [Example 685] | 7.54
N#Cc1cnc2c(Br)cc(NCc3cn(CCO)nn3)cc2c1Nc1ccc(F)c(Cl)c1 [Example 686] | 7.55
N#Cc1cnc2c(Br)cc(NCc3cn(CCC4CCNCC4)nn3)cc2c1Nc1ccc(F)c(Cl)c1 [Example 691] | 7.05
N#Cc1cnc2c(Cl)cc(NCc3cn(CCC4CCNCC4)nn3)cc2c1Nc1ccc(F)c(Cl)c1 [Example 692] | 6.89
CC(C)(C)OC(=O)N1CCC(CCn2cc(CN(Cc3cn(CCC4CCN(C(=O)OC(C)(C)C)CC4)nn3)c3cc(Br)c4ncc(C#N)c(Nc5ccc(F)c(Cl)c5)c4c3)nn2)CC1 [Example 693] | < 5.52
CS(=O)(=O)CCn1cc(CNc2cc(Br)c3ncc(C#N)c(Nc4ccc(F)c(Cl)c4)c3c2)nn1 [Example 694] | 7.04
CN1CCC(CCn2cc(CNc3cc(Br)c4ncc(C#N)c(Nc5ccc(F)c(Cl)c5)c4c3)nn2)CC1 [Example 695] | 7.36
CN1CCC(CCn2cc(CNc3cc(Cl)c4ncc(C#N)c(Nc5ccc(F)c(Cl)c5)c4c3)nn2)CC1 [Example 696] | 8.77
N#Cc1cnc2c(Br)cc(NCc3cn(CCCO)nn3)cc2c1Nc1ccc(F)c(Cl)c1 [Example 697] | 7.74
COCCn1cc(CNc2cc(Br)c3ncc(C#N)c(Nc4ccc(F)c(Cl)c4)c3c2)nn1 [Example 698] | 7.74
N#Cc1cnc2c(Br)cc(NCc3cn(CCS(=O)(=O)C4CCCC4)nn3)cc2c1Nc1ccc(F)c(Cl)c1 [Example 699] | 7.28
N#Cc1cnc2c(Br)cc(NCc3cnc4cnccn34)cc2c1Nc1ccc(F)c(Cl)c1 [Example 700] | 6.96
N#Cc1cnc2c(Br)cc(NCc3cnc4ccccn34)cc2c1Nc1ccc(F)c(Cl)c1 [Example 701] | 6.55
CS(=O)(=O)CCn1cnc(CNc2cc(Br)c3ncc(C#N)c(Nc4ccc(F)c(Cl)c4)c3c2)c1 [Example 702] | 7.37
C[S+]([O-])Cn1cc(CNc2cc(Br)c3ncc(C#N)c(Nc4ccc(F)c(Cl)c4)c3c2)nn1 (stereo not drawn) [Example 703] | 6.92
CS(=O)(=O)Cn1cc(CNc2cc(Br)c3ncc(C#N)c(Nc4ccc(F)c(Cl)c4)c3c2)nn1 [Example 704] | 7.48
CSCn1cc(CNc2cc(Br)c3ncc(C#N)c(Nc4ccc(F)c(Cl)c4)c3c2)nn1 [Example 705] | 7.92

SMILES | pIC50
N#Cc1cnc2c(Br)cc(NCc3cn(Cc4cccnc4)cn3)cc2c1Nc1ccc(F)c(Cl)c1 [Example 706] | 8.51
N#Cc1cnc2c(Br)cc(NCc3cc(C4CCNCC4)n[nH]3)cc2c1Nc1ccc(F)c(Cl)c1 [Example 707] | 6.10
CN1CCCC1CCn1cnc(CNc2cc(Br)c3ncc(C#N)c(Nc4ccc(F)c(Cl)c4)c3c2)c1 (stereo not drawn) [Example 708] | 7.47
CS(=O)(=O)N1CCC(n2cc(CNc3cc(Br)c4ncc(C#N)c(Nc5ccc(F)c(Cl)c5)c4c3)nn2)CC1 [Example 710] | 8.96
N#Cc1cnc2c(Br)cc(NCc3cn(CCCN4CCCCC4)nn3)cc2c1Nc1ccc(F)c(Cl)c1 [Example 711] | 8.47
N#Cc1cnc2c(Cl)cc(NCc3cn(CCCN4CCCCC4)nn3)cc2c1Nc1ccc(F)c(Cl)c1 [Example 712] | 8.96
CC(C)(C)OC(=O)N1CCCC(Cn2cc(CNc3cc(Br)c4ncc(C#N)c(Nc5ccc(F)c(Cl)c5)c4c3)nn2)C1 (stereo not drawn) [Example 713] | 6.92
CC(C)(C)OC(=O)N1CCCC(Cn2cc(CNc3cc(Cl)c4ncc(C#N)c(Nc5ccc(F)c(Cl)c5)c4c3)nn2)C1 (stereo not drawn) [Example 714] | 6.60
CC(C)(C)CN1CCC(n2cc(CNc3cc(Br)c4ncc(C#N)c(Nc5ccc(F)c(Cl)c5)c4c3)nn2)CC1 [Example 715] | 6.72
CC(C)(C)OC(=O)N1CCCC1Cn1cc(CNc2cc(Cl)c3ncc(C#N)c(Nc4ccc(F)c(Cl)c4)c3c2)nn1 (stereo not drawn) [Example 716] | 6.49
CC(C)(C)OC(=O)N1CCCC1Cn1cc(CNc2cc(Br)c3ncc(C#N)c(Nc4ccc(F)c(Cl)c4)c3c2)nn1 (stereo not drawn) [Example 717] | 6.57
N#Cc1cnc2c(Br)cc(NCc3cn(CC4CCCNC4)nn3)cc2c1Nc1ccc(F)c(Cl)c1 (stereo not drawn) [Example 718] | 7.48
N#Cc1cnc2c(Cl)cc(NCc3cn(CC4CCCNC4)nn3)cc2c1Nc1ccc(F)c(Cl)c1 (stereo not drawn) [Example 719] | 7.32
CC(=O)N1CCC(n2cc(CNc3cc(Br)c4ncc(C#N)c(Nc5ccc(F)c(Cl)c5)c4c3)nn2)CC1 [Example 720] | 8.21
N#Cc1cnc2c(Cl)cc(NCc3cn(CC4CCCN4)nn3)cc2c1Nc1ccc(F)c(Cl)c1 (stereo not drawn) [Example 721] | 8.04
N#Cc1cnc2c(Br)cc(NCc3cn(CC4CCCN4)nn3)cc2c1Nc1ccc(F)c(Cl)c1 (stereo not drawn) [Example 722] | 8.04
N#Cc1cnc2c(Br)cc(NCc3cc([C@@H]4CCCN4)n[nH]3)cc2c1Nc1ccc(F)c(Cl)c1 [Example 724] | 6.48
N#Cc1cnc2c(Br)cc(NCc3cn(-c4ccncc4)cn3)cc2c1Nc1ccc(F)c(Cl)c1 [Example 725] | 7.64
N#Cc1cnc2c(Cl)cc(NCc3cn(Cc4cccnc4)cn3)cc2c1Nc1ccc(F)c(Cl)c1 [Example 726] | 8.15
N#Cc1cnc2c(Br)cc(NCc3cn(CCc4ccccn4)nn3)cc2c1Nc1ccc(F)c(Cl)c1 [Example 728] | 8.47
N#Cc1cnc2c(Br)cc(NCc3cn(-c4ccncc4)nn3)cc2c1Nc1ccc(F)c(Cl)c1 [Example 729] | 8.26
C=CCn1cc(CNc2cc(Br)c3ncc(C#N)c(Nc4ccc(F)c(Cl)c4)c3c2)nn1 [Example 732] | 7.70
COCCn1cc(CNc2cc(Cl)c3ncc(C#N)c(Nc4ccc(F)c(Cl)c4)c3c2)nn1 [Example 733] | 7.70

SMILES | pIC50
N#Cc1cnc2c(Cl)cc(NCc3cn(C4CCOCC4)nn3)cc2c1Nc1ccc(F)c(Cl)c1 [Example 734] | 7.85
CCN1CCC(Cn2cc(CNc3cc(Br)c4ncc(C#N)c(Nc5ccc(F)c(Cl)c5)c4c3)nn2)CC1 [Example 735] | 7.40
CC(C)N1CCC(Cn2cc(CNc3cc(Br)c4ncc(C#N)c(Nc5ccc(F)c(Cl)c5)c4c3)nn2)CC1 [Example 736] | 7.54
CCN1CCC(CCn2cc(CNc3cc(Br)c4ncc(C#N)c(Nc5ccc(F)c(Cl)c5)c4c3)nn2)CC1 [Example 737] | 7.19
CC(C)N1CCC(CCn2cc(CNc3cc(Br)c4ncc(C#N)c(Nc5ccc(F)c(Cl)c5)c4c3)nn2)CC1 [Example 738] | 7.24
CN(C)CC(c1ccccc1)n1cc(CNc2cc(Br)c3ncc(C#N)c(Nc4ccc(F)c(Cl)c4)c3c2)nn1 (stereo not drawn) [Example 739] | 7.03
CN(C)CC(c1ccccc1)n1cc(CNc2cc(Cl)c3ncc(C#N)c(Nc4ccc(F)c(Cl)c4)c3c2)nn1 (stereo not drawn) [Example 740] | 7.15
N#Cc1cnc2c(Br)cc(NCc3cn(CCOCCOCCO)nn3)cc2c1Nc1ccc(F)c(Cl)c1 [Example 741] | 6.85
N#Cc1cnc2c(Cl)cc(NCc3cn(CCOCCOCCO)nn3)cc2c1Nc1ccc(F)c(Cl)c1 [Example 742] | 7.04
COCCOCCn1cc(CNc2cc(Br)c3ncc(C#N)c(Nc4ccc(F)c(Cl)c4)c3c2)nn1 [Example 743] | 7.00
COCCOCCn1cc(CNc2cc(Cl)c3ncc(C#N)c(Nc4ccc(F)c(Cl)c4)c3c2)nn1 [Example 744] | 7.68
CN(C)CCc1nc[nH]c1CNc1cc(Br)c2ncc(C#N)c(Nc3ccc(F)c(Cl)c3)c2c1 [Example 745] | 6.62
N#Cc1cnc2c(Cl)cc(NCc3cn(CCc4ccccn4)nn3)cc2c1Nc1ccc(F)c(Cl)c1 [Example 746] | 7.60
N#Cc1cnc2c(Cl)cc(NCc3cn(-c4ccnc(N5CCCCC5)n4)nn3)cc2c1Nc1ccc(F)c(Cl)c1 [Example 747] | 6.49
N#Cc1cnc2c(Br)cc(NCc3cn(-c4cc[n+]([O-])cc4)nn3)cc2c1Nc1ccc(F)c(Cl)c1 [Example 748] | 7.82
N#Cc1cnc2c(Cl)cc(NCc3cn(-c4cc[n+]([O-])cc4)nn3)cc2c1Nc1ccc(F)c(Cl)c1 [Example 749] | 7.80
CN(C)C(=O)OCCCn1cc(CNc2cc(Cl)c3ncc(C#N)c(Nc4ccc(F)c(Cl)c4)c3c2)nn1 [Example 750] | 7.80
N#Cc1cnc2c(Cl)cc(NCc3cn(CCCO)nn3)cc2c1Nc1ccc(F)c(Cl)c1 [Example 751] | 8.44
CN(C)C(=O)OCCCn1cc(CNc2cc(Br)c3ncc(C#N)c(Nc4ccc(F)c(Cl)c4)c3c2)nn1 [Example 752] | 8.46
N#Cc1cnc2c(Br)cc(NCc3cn(Cc4ccccn4)nn3)cc2c1Nc1ccc(F)c(Cl)c1 [Example 753] | 7.48
N#Cc1cnc2c(Cl)cc(NCc3cn(CC4CCCCC4)nn3)cc2c1Nc1ccc(F)c(Cl)c1 [Example 755] | 6.10
N#Cc1cnc2c(Cl)cc(NCc3cn(Cc4ccc(C(F)(F)F)cc4)nn3)cc2c1Nc1ccc(F)c(Cl)c1 [Example 756] | < 5.52
CN(C)CCC(c1cccnc1)n1cc(CNc2cc(Br)c3ncc(C#N)c(Nc4ccc(F)c(Cl)c4)c3c2)nn1 (stereo not drawn) [Example 757] | 8.17
